Publication PMC5548701, “Selective targeting of melanoma using N-(2-diethylaminoethyl) 4-[^18F]fluoroethoxy benzamide (4-[^18F]FEBZA): a novel PET imaging probe” (EJNMMI Research, 2017)
Several values for one entry are separate records, joined by “and”; a condition that tells them apart may be missing. Equal values may be shown once. Read-outs that look alike come from different tables or passages of the source.

Columns and labels:
B16F1 cells = assay: homologous competitive binding assay on fixed B16F1 cells; set-up: species or system murine; details: homologous competition with unlabeled 4-FEBZA, 1 h
Description: After adding 0.1 nmol of 4-[^18F]FEBZA/well as the radioligand, unlabeled 4-FEBZA (2) was added to the quadruplicate sets of wells in concentrations ranging from 10^−11 to 10^−4 M and the plates were incubated for an hour at 37 °C under 5% CO2. At the end of the incubation, the media were removed, and the cells were washed with 500 μL of ice-cold media. The cells were lysed using 1 mL of phosphate-buffered saline containing 10% Triton X-100, and the lysates were collected in culture tubes to measure the radioactivity contents using a γ-counter. We performed a non-linear regression analysis of the decay-corrected CPM values to calculate the inhibition constant value (IC50), the concentration of competitor required to inhibit 50% of radiotracer binding, utilizing the GraphPad Prism software program (GraphPad Software, Inc., CA).

B16F1 melanoma cells = assay: in vitro cell binding, influence of incubation time and temperature; assay type: cell-based, murine; details: 2.5 × 10^5 cells/well, percent of total radioactivity added
Description: The in vitro cell binding was assessed by growing B16F1 cells in culture flasks to 80–90% confluence, trypsinizing, washing in PBS (pH 7.4), aliquoting into 12-well plates and allowing adherence to the wells overnight. Initially, we studied the influence of the incubation time and temperature on the binding to B16F1 melanoma cells. For this study, 12-well plates containing ~2.5 × 10^5 cells/well were incubated at 0, 22, and 37 °C with 4-[^18F]FEBZA in quadruplicate sets for 15, 30, 60, 120, and 180 min. After the incubation, the media were removed, and each well was washed with fresh ice-cold media (2 × 2 mL). The adherent cells were removed by lysing cells in 500 μL of PBS containing 10% Triton X-100 (Sigma-Aldrich, St. Louis, MO). The combined washes and lysate were analyzed for radioactivity content using a γ-counter.

[1] = system: B16F1 melanoma tumor xenografts; assay: biodistribution in mice bearing B16F1 tumor xenografts; assay type: in vivo, C57BL/6 mice; details: for tumor-to-brain tissue ratio: B16F1 group; for Adrenals %IA/g tissue (mean ± SD) / Blood %IA/g tissue (mean ± SD) / Bone %IA/g tissue (mean ± SD) / Brain %IA/g tissue (mean ± SD) / Heart %IA/g tissue (mean ± SD) / Kidneys %IA/g tissue (mean ± SD) / Liver %IA/g tissue (mean ± SD) / Lung %IA/g tissue (mean ± SD) / Muscles %IA/g tissue (mean ± SD) / Pancreas %IA/g tissue (mean ± SD) / Sm. Intestine %IA/g tissue (mean ± SD) / Spleen %IA/g tissue (mean ± SD): B16F1 tumor mice; for Tumor %IA/g tissue (mean ± SD): B16F1 tumor
Description: (§1) B16F1 melanoma cells, HT-29 human colorectal adenocarcinoma cells, and C-32 amelanotic melanoma cells were purchased from the American Type Culture Collection (ATCC, Rockville, MD). B16F1 murine melanotic melanoma cells were maintained in Dulbecco’s modified Eagles medium supplemented with 10% fetal calf-serum, 2 mM L-glutamine, and 1 mM pyruvate. HT-29 and C-32 cells were maintained in RPMI supplemented with 10% fetal calf serum and 2 mM L-glutamine. C57BL/6 and athymic nu/nu mice were purchased from Charles River Laboratories (Charles River Laboratories, Boston, MA). All animal studies were performed using an IACUC-approved protocol, and the work was performed under the guidelines established by Wake Forest University. The cells were grown to confluency, harvested, washed with phosphate-buffered saline and then were suspended in a 1:1 mixture of phosphate-buffered saline and Matrigel (BD Life Sciences, San Jose, CA) at a concentration of 5 × 10^6 cells/mL. For subcutaneous tumor xenografts, […] in the right flank with 100 μL of a suspension of B16F1 cells, and female athymic nu/nu mice were injected in the right flank with 100 μL of HT-29 cells or C-32 cells.
(§2) The biodistribution studies were performed in mice bearing B16F1 (1 h n = 5; 2 h n = 6), C-32 (1 h n = 3; 2 h n = 3), and HT-29 (1 h n = 3; 2 h n = 3) tumor xenografts. The tumor-bearing mice were injected with ~40 μCi of 4-[^18F]FEBZA. A separate group of normal C57BL/6 mice with no tumor implants (1 h n = 3; 2 h n = 3) was also injected with ~40 μCi of 4-[^18F]FEBZA to study the distribution characteristics of 4-[^18F]FEBZA in the absence of tumors. At 1 h and 2 h post-injection, the mice were euthanized, and the tissues of interest were removed, rinsed with PBS, weighed, and counted for radioactivity contents using a γ-counter.

[2] = system: C-32 amelanotic melanoma tumor xenografts; assay: biodistribution in mice bearing C-32 tumor xenografts; assay type: in vivo, athymic nu/nu mice; details: for Adrenals %IA/g tissue (mean ± SD) / Blood %IA/g tissue (mean ± SD) / Bone %IA/g tissue (mean ± SD) / Brain %IA/g tissue (mean ± SD) / Heart %IA/g tissue (mean ± SD) / Kidneys %IA/g tissue (mean ± SD) / Liver %IA/g tissue (mean ± SD) / Lung %IA/g tissue (mean ± SD) / Muscles %IA/g tissue (mean ± SD) / Pancreas %IA/g tissue (mean ± SD) / Sm. Intestine %IA/g tissue (mean ± SD) / Spleen %IA/g tissue (mean ± SD): C-32 tumor mice; for Tumor %IA/g tissue (mean ± SD): C-32 tumor
Description: as §1, §2

B16F1 tumor = assay: microPET imaging in mice bearing B16F1 tumor; assay type: in vivo
Description: In vivo imaging of 4-[^18F]FEBZA in mice bearing B16F1 (n = 2) and HT-29 (n = 1) tumor was performed using a P4 microPET™ scanner (Concorde Microsystems, Inc., Knoxville, TN). After administering ~100 μCi of 4-[^18F]FEBZA via tail-vein injection, whole body PET scans were acquired in list mode. The images were reconstructed using filtered back projection with attenuation correction. Regions Of Interest (ROIs) were drawn on select organs using the summed image from the entire scan acquisition session, and the data were analyzed using ASIPro software (Siemens Preclinical Solutions, Knoxville, TN). The time activity curves (TACs) were generated from the list mode data reconstructed into multiple 5-min frames.

IC50 (B16F1 cells; read-out: IC50, first of two distinct binding sites): 1.8 nM
IC50 (B16F1 cells; read-out: IC50, second of two distinct binding sites): 1300 nM
tumor-to-brain tissue ratio ([1]; 1 h): 3.55 ± 0.80
tumor-to-brain tissue ratio ([1]; 2 h): 3.45 ± 0.81
tumor-to-muscle ratio ([1]; B16F1 mice group, 2 h): 6.64 ± 1.11
Adrenals %IA/g tissue (mean ± SD) ([1]; 1 h post-injection): 1.10 ± 0.36 %IA/g tissue
Blood %IA/g tissue (mean ± SD) ([1]; 1 h post-injection): 3.06 ± 0.52 %IA/g tissue
Bone %IA/g tissue (mean ± SD) ([1]; 1 h post-injection): 3.78 ± 0.45 %IA/g tissue
Brain %IA/g tissue (mean ± SD) ([1]; 1 h post-injection): 2.55 ± 0.61 %IA/g tissue
Heart %IA/g tissue (mean ± SD) ([1]; 1 h post-injection): 2.82 ± 0.25 %IA/g tissue
Kidneys %IA/g tissue (mean ± SD) ([1]; 1 h post-injection): 3.10 ± 0.28 %IA/g tissue
Liver %IA/g tissue (mean ± SD) ([1]; 1 h post-injection): 3.25 ± 0.34 %IA/g tissue
Lung %IA/g tissue (mean ± SD) ([1]; 1 h post-injection): 2.12 ± 0.17 %IA/g tissue
Muscles %IA/g tissue (mean ± SD) ([1]; 1 h post-injection): 1.51 ± 0.21 %IA/g tissue
Pancreas %IA/g tissue (mean ± SD) ([1]; 1 h post-injection): 2.48 ± 0.35 %IA/g tissue
Spleen %IA/g tissue (mean ± SD) ([1]; 1 h post-injection): 2.24 ± 0.36 %IA/g tissue
Adrenals %IA/g tissue (mean ± SD) ([1]; 2 h post-injection): 0.88 ± 0.06 %IA/g tissue
Blood %IA/g tissue (mean ± SD) ([1]; 2 h post-injection): 2.51 ± 0.93 %IA/g tissue
Bone %IA/g tissue (mean ± SD) ([1]; 2 h post-injection): 5.45 ± 0.98 %IA/g tissue
Brain %IA/g tissue (mean ± SD) ([1]; 2 h post-injection): 2.25 ± 0.50 %IA/g tissue
Heart %IA/g tissue (mean ± SD) ([1]; 2 h post-injection): 2.12 ± 0.58 %IA/g tissue
Kidneys %IA/g tissue (mean ± SD) ([1]; 2 h post-injection): 2.20 ± 0.38 %IA/g tissue
Liver %IA/g tissue (mean ± SD) ([1]; 2 h post-injection): 2.28 ± 0.49 %IA/g tissue
Lung %IA/g tissue (mean ± SD) ([1]; 2 h post-injection): 1.49 ± 0.49 %IA/g tissue
Muscles %IA/g tissue (mean ± SD) ([1]; 2 h post-injection): 1.14 ± 0.21 %IA/g tissue
Pancreas %IA/g tissue (mean ± SD) ([1]; 2 h post-injection): 1.73 ± 0.14 %IA/g tissue
Sm. Intestine %IA/g tissue (mean ± SD) ([1]; 2 h post-injection): 1.60 ± 0.31 %IA/g tissue
Spleen %IA/g tissue (mean ± SD) ([1]; 2 h post-injection): 1.58 ± 0.18 %IA/g tissue
Tumor %IA/g tissue (mean ± SD) ([1]; 1 h post-injection): 8.66 ± 1.02 %IA/g tissue
Tumor %IA/g tissue (mean ± SD) ([1]; 2 h post-injection): 7.47 ± 1.34 %IA/g tissue
tumor-to-muscle ratio ([2]; C-32 mice group, 2 h): 2.43 ± 0.14
Adrenals %IA/g tissue (mean ± SD) ([2]; 1 h post-injection): 1.26 ± 0.39 %IA/g tissue
Blood %IA/g tissue (mean ± SD) ([2]; 1 h post-injection): 3.22 ± 0.64 %IA/g tissue
Bone %IA/g tissue (mean ± SD) ([2]; 1 h post-injection): 3.47 ± 0.78 %IA/g tissue
Brain %IA/g tissue (mean ± SD) ([2]; 1 h post-injection): 1.87 ± 0.21 %IA/g tissue
Heart %IA/g tissue (mean ± SD) ([2]; 1 h post-injection): 2.52 ± 0.15 %IA/g tissue
Kidneys %IA/g tissue (mean ± SD) ([2]; 1 h post-injection): 2.85 ± 0.37 %IA/g tissue
Liver %IA/g tissue (mean ± SD) ([2]; 1 h post-injection): 3.11 ± 0.49 %IA/g tissue
Lung %IA/g tissue (mean ± SD) ([2]; 1 h post-injection): 1.94 ± 0.67 %IA/g tissue
Muscles %IA/g tissue (mean ± SD) ([2]; 1 h post-injection): 2.35 ± 1.06 %IA/g tissue
Pancreas %IA/g tissue (mean ± SD) ([2]; 1 h post-injection): 2.49 ± 0.42 %IA/g tissue
Sm. Intestine %IA/g tissue (mean ± SD) ([2]; 1 h post-injection): 2.23 ± 0.21 %IA/g tissue
Spleen %IA/g tissue (mean ± SD) ([2]; 1 h post-injection): 1.96 ± 0.38 %IA/g tissue
Adrenals %IA/g tissue (mean ± SD) ([2]; 2 h post-injection): 0.77 ± 0.18 %IA/g tissue
Blood %IA/g tissue (mean ± SD) ([2]; 2 h post-injection): 2.40 ± 0.30 %IA/g tissue
Bone %IA/g tissue (mean ± SD) ([2]; 2 h post-injection): 5.09 ± 0.72 %IA/g tissue
Brain %IA/g tissue (mean ± SD) ([2]; 2 h post-injection): 1.36 ± 0.17 %IA/g tissue
Heart %IA/g tissue (mean ± SD) ([2]; 2 h post-injection): 1.75 ± 0.35 %IA/g tissue
Kidneys %IA/g tissue (mean ± SD) ([2]; 2 h post-injection): 1.84 ± 0.12 %IA/g tissue
Liver %IA/g tissue (mean ± SD) ([2]; 2 h post-injection): 1.99 ± 0.12 %IA/g tissue
Lung %IA/g tissue (mean ± SD) ([2]; 2 h post-injection): 1.33 ± 0.35 %IA/g tissue
Muscles %IA/g tissue (mean ± SD) ([2]; 2 h post-injection): 1.05 ± 0.14 %IA/g tissue
Pancreas %IA/g tissue (mean ± SD) ([2]; 2 h post-injection): 1.40 ± 0.10 %IA/g tissue
Sm. Intestine %IA/g tissue (mean ± SD) ([2]; 2 h post-injection): 1.33 ± 0.06 %IA/g tissue
Spleen %IA/g tissue (mean ± SD) ([2]; 2 h post-injection): 1.22 ± 0.08 %IA/g tissue
Tumor %IA/g tissue (mean ± SD) ([2]; 1 h post-injection): 3.91 ± 0.23 %IA/g tissue
Tumor %IA/g tissue (mean ± SD) ([2]; 2 h post-injection): 2.53 ± 0.19 %IA/g tissue
standardized uptake value (SUV) of tumor from microPET images (B16F1 tumor; B16F1 tumor): 1.53 ± 1.01
radioactivity level in B16F1 tumor from microPET time activity curve (B16F1 tumor; by 47 min): over 3.5 %IA/g tumor
SMILES: CCN(CC)CCNC(=O)c1ccc(OCC[18F])cc1 [4-[^18F]FEBZA, N-(2-diethylaminoethyl) 4-[^18F]fluoroethoxybenzamide]
total binding to B16F1 cells (B16F1 melanoma cells; 22 °C): 44.45 ± 0.61%
total binding to B16F1 cells (B16F1 melanoma cells; 37 °C, 1 h incubation): 60.03 ± 0.48%
Sm. Intestine %IA/g tissue (mean ± SD) ([1]; 1 h post-injection): 2.48 ± 0.35 %IA/g tissue and 2.49 ± 0.25 %IA/g tissue
time post-injection by which tumor is clearly visible on microPET images (B16F1 tumor; B16F1 melanoma tumor): ≤ 10 min
